Results as given in patent US20130281400A1, “Metabolic Downregulation for Cell Survival” (Wake Forest University Health Sciences, priority 2010, published 2013).

Experiments:
muscle tissue = assay: adenosine injected into muscle tissue; format: in vivo
From the text: Adenosine, a nucleoside known for its function as an energy transferring molecule, is also known to function as a modulator of hypoxia-induced ion-channel arrest, which eventually leads to lowering of ATP consumption, and thus oxygen demand. Moreover, it is also known to stimulate angiogenesis. Thus, the present invention provides for the application of adenosine to cell-seeded scaffolds under the hypoxic condition to improve cell survival rate via the downregulation of metabolic rate, and thus lowering oxygen demand and consumption. As contemplated herein, agonists to adenosine may also be used in a similar manner to lower the oxygen demand of cells and tissues. […] Adenosine may be administered alone as a composition or within a formulation, as would be understood by those skilled in the art.

[1] = system: C2C12 cells, murine myoblasts; assay: MTS assay of metabolic activity of viable cells under hypoxia (0.1% O2) with daily adenosine; format: cell-based
Experimental: 500 μL of a cell suspension (C2C12 cells, murine myoblasts) in high glucose Dulbecco's modified Eagle's medium (DMEM, Gibco) containing 10% FBS, 500 U/mL penicillin and 500 μg/mL streptomycin was placed in each well of a 48-well culture plate at a density of 1052 (FIG. 2) and 2105 (FIG. 3) cells/cm^2. Cells were incubated for 24 hr in normoxic conditions (21% O2, 37° C.) prior to placement in a hypoxic chamber. At day 0, the plates designated as the hypoxic group were transferred to the hypoxic chamber (0.1% O2). […] Another group receiving daily doses of adenosine ([…], achieved by serial dilution) was incubated for up to 7 days under hypoxia and then placed back into normoxic conditions without additional supply of adenosine. Adenosine was refreshed by the daily exchange of media in which adenosine was completely dissolved. Media to be used under hypoxia was placed in the hypoxic chamber 24 hr prior to use for deoxygenation down to 2% O2. The metabolic activity of viable cells at each pre-determined time point was assessed using an MTS assay, which measures mitochondrial activity of cells. Adenosine was used with C2C12 at passage 17, the murine myoblast cell lines, because of their relatively high metabolic activity and proliferation rate. […] Based on the microscopic observations of these cell stained with Giemsa, it was not seen that whole population of cells completely reached the state of necrosis up to the latest time point tested, as a few populations of attached cells were still observed. It is expected that those remaining cells eventually die. […] The effect of dose was also evaluated on a degree of cellular activity (FIG. 3). […] Based on this outcome, the minimum effective concentration of adenosine appears to be about 1 mM under this experimental condition. The reason for 1 mM treated cells not declining up to the duration tested may potentially have been the lower starting number of cells. […] Finally, the long term effect of adenosine was tested on resuming its proliferation after its supply is stopped. The duration tested under the effect of adenosine was 22 days, as the angiogenesis process is known to take 2-3 weeks (Cotton, 1996, Trends Biotechnol, 14(5):158-62; […] et al., 1996, Biomaterials, 17(3):277-84) for completion.

Nc1ncnc2c1ncn2[C@@H]1O[C@H](CO)[C@@H](O)[C@H]1O [adenosine]
cellular viability and tissue architecture (muscle tissue): preservation of cellular viability and tissue architecture
cellular metabolic activity pattern at 1 mM adenosine ([1]; 1 mM adenosine, hypoxia, FIG. 3): showed a similar pattern with the cells grown in the hypoxic condition without supply of adenosine
long term effect: resuming proliferation after adenosine supply is stopped ([1]; 22 days under the effect of adenosine, various doses, FIG. 4): still demonstrated the ability to restore its normal proliferation rate
cellular (metabolic) activity under hypoxic conditions ([1]; C2C12 passage 17, hypoxia 0.1% O2, daily adenosine up to 7 days, FIG. 2): maintained a steady state of cellular activity
effect of dose on degree of cellular activity ([1]; adenosine dose increased from 1 to 10 mM, hypoxic conditions, FIG. 3): an escalation of steady hypometabolic state was maintained under hypoxic conditions
resumption of normal metabolic activity after removal of adenosine ([1]; adenosine removed at day 7, cells returned to normoxic conditions, FIG. 2): resumed their normal metabolic activity two days after adenosine was removed at day 7
minimum effective concentration of adenosine ([1]; hypoxic conditions, dose study, FIG. 3): about 1 mM
